Legend:
[1] = Plasma protein binding (equilibrium dialysis), rat; type: in vitro ADME; conditions: for fraction unbound: equilibrium dialysis, read-out: PPB (%), rat (converted); for recovery: plasma (undiluted, freshly thawed), PPB assay recovery
Experimental: The assay was performed in a multiple-use 96-well dialysis unit (HTD96b dialyzer). Each individual well unit consisted of 2 chambers separated by a vertically aligned dialysis membrane of predetermined pore size (MWCO 12-14 kDa). 120 μl of non-diluted freshly thawed mouse, rat or human plasma spiked with the compound (1 μM, final DMSO concentration 1%) was added to one chamber and the same volume of PBS buffer pH 7.4 to the other chamber. HTD96b dialyzer was covered with adhesive sealing film and incubated at 37° C., shaking at 100 rpm for 5 hours.
For samples preparation, an aliquot of the content of each chamber had been mixed with the same volume of the blank opposite matrix. In order to define non-specific loss of the compound during this assay, a standard solution was created by mixing an aliquot of spiked plasma with blank buffer without dialysis. Samples were diluted 10-fold with 100% acetonitrile with subsequent plasma proteins sedimentation by centrifuging at 6000 rpm for 5 minutes. Supernatants were analyzed using HPLC system coupled with tandem mass spectrometer (API3000 PE Sciex). Acquisition and analysis of the data were performed using Analyst 1.5.2 software (PE Sciex). The percentage of plasma protein bound compound and recovery were calculated using following equations: […]
Prior to the start of the experiment, dialysis membranes (membrane strips, MW cut-off 12-14 kDa, HTDialysis, Cat.NoJl 101) are soaked in deionized water for 60 min, transferred and left overnight in 20% EtOH. The day of experiment, a 10 mM stock solution of the compound in DMSO is diluted with a factor 10 in DMSO. This solution is further diluted in freshly thawed human, rat, mouse or dog plasma (BioIVT) with a final concentration of 5 μM and final DMSO concentration of 0.5%.
From this solution, an aliquot of 50 μL was taken and matrix matched with an equivalent volume of PBS for the recovery plate, after which 6 volumes of STOP solution were added to the recovery plate. For these recovery plates, no incubation is done.
Equilibrium Dialysis Device (96-well, model HTD96b, HTDialysis, Cat. No. #1006) is assembled according to manufacturer's instructions. Immediately after assembly, a volume of 100 μL of plasma (spiked with compound) is placed on one side of the well and another 100 μL of blank PBS buffer are added to the other side, respectively. Each compound is tested in duplicate. Acebutolol and Nicardipine are used as low and very high binding controls, except for the mouse, Caffeine is used as low binder instead Acebutolol. If the PPB values for these controls are not in the range determined by the historical data, the assay is not validated.
The plate is incubated for 4 h at 37° C. while shaking at 230 rpm. Thereafter, an aliquot of 50 μL is taken from each side of the well and matrix matched (mix of equal volumes of spiked plasma with blank PBS buffer and samples from buffer compartment with blank plasma). Matrix matched samples are further mixed with 3 volumes of STOP solution (acetonitrile/MeOH 2/1 with diclofenac as internal standard). After brief mixing and centrifugation (at 2400 rpm for 15 min, at +4° C.), the supernatant is filtered and transferred into new 96-well plates for analysis on LC-MS/MS (systems API4000).
The percentage of plasma protein bound compound and recovery were calculated using following equations:
with: • Cplasma=peak area of the compound in the plasma/peak area of the IS in the plasma • Cbuffer=peak area of the compound in the buffer/peak area of the IS in the buffer • ‘Concentration’ is the ratio between compound and IS peak areas
The recovery is a control, which allows to be sure that the compound has not a non-specific binding to the plates or is not stable in the plasma in these conditions: […]

[2] = Metabolic stability in hepatocytes, mouse; type: in vitro ADME; conditions: hepatocytes (cryopreserved), read-out: Mouse Clint (μL/min/10^6 cells)
Experimental: The aim of this assay is to determine the metabolic stability of the compound in hepatocytes (cryopreserved) of different species (mouse CD1, rat Sprague Dawley, dog Beagle). Low hepatocyte stability may result in the formation of unwanted metabolites, high clearance, and therefore is not desirable. The decrease in parent was assessed by measuring the percentage remaining by LC-MS/MS analysis. The batches of hepatocytes were tested for quality control using Testosterone, Umbelliferone and Caffeine as reference compounds.
A 10 mM stock solution of test compound in DMSO was first diluted in DMSO to 3 mM, and then in modified Krebs-Henseleit buffer (Sigma, K3753) to 5 μM. This compound dilution was added to a suspension of pooled cryopreserved hepatocytes (BioIVT) at 37° C. under gentle shaking. Final reaction conditions were: 1 μM of test compound, <0.1% DMSO, 0.5 million viable hepatocytes/mL, and 75 μL incubation volume.
After 0, 10, 20, 45, 90, 120 and 180 min of incubation, the reaction was terminated with 3 volumes of MeCN:MeOH (2:1) containing diclofenac as analytical internal standard. Samples were mixed, centrifuged and the supernatant analyzed by LC-MS/MS (systems API4000). The instrument responses (ratios of test compound and internal standard peak areas) were referenced to the zero time point samples (considered as 100%) in order to determine the percentage of compound remaining. Plots of percentage compound remaining were used to determine the intrinsic clearance in the hepatocyte incubations.
Testosterone (1 μM) and Umbelliferone (1 μM) and Caffeine (1 μM) were used as reference compounds, being unstable and stable compounds respectively. If the hepatocyte stability values for these controls are not in the range determined by the historical data, the assay is not validated.

Structure (SMILES) | fraction unbound [1] | recovery [1] [%] | hepatocyte CLint [2] [µL/min/1e6 cells]
CC(C)Cc1ccc(-c2nn[nH]n2)c(N2CCN(Cc3cccnn3)CC2)c1 [Compound A-90, 3-[[4-[5-isobutyl-2-(2H-tetrazol-5-yl)phenyl]piperazin-1-yl]methyl]pyridazine] | 0.23 | 105 | –
CC(C)Cc1cc(F)c(-c2nn[nH]n2)c(N2CCN(Cc3cccnn3)C(C)C2)c1 (stereo not drawn) [Compound A-173, 3-[[4-[3-fluoro-5-isobutyl-2-(2H-tetrazol-5-yl)phenyl]-2-methyl-piperazin-1-yl]methyl]pyridazine] | 0.19 | 100 | 4
CCC1CN(c2cc(CC(C)C)cc(F)c2-c2nn[nH]n2)CCN1Cc1cccnn1 (stereo not drawn) [Compound A-178, 3-[[2-ethyl-4-[3-fluoro-5-isobutyl-2-(2H-tetrazol-5-yl)phenyl]piperazin-1-yl]methyl]pyridazine] | 0.12 | 96 | 0.8
CCC1CN(Cc2cccnn2)CCN1c1cc(CC(C)C)cc(F)c1-c1nn[nH]n1 (stereo not drawn) [Compound A-181, 3-[[3-ethyl-4-[3-fluoro-5-isobutyl-2-(2H-tetrazol-5-yl)phenyl]piperazin-1-yl]methyl]pyridazine] | 0.12 | 96 | 1

More lines, now with the values ahead:

fraction unbound [1] | recovery [1] [%] | hepatocyte CLint [2] [µL/min/1e6 cells] | Structure (SMILES)
< 0.1 | 84 | – | CC(C)Cc1ccc(-c2nn[nH]n2)c(N2CCN(Cc3nc4ccccc4c(=O)[nH]3)CC2)c1 [Compound A-31, 2-[[4-[5-isobutyl-2-(2H-tetrazol-5-yl)phenyl]piperazin-1-yl]methyl]-3H-quinazolin-4-one]
0.017 | 90 | < 5.4 | CC(C)Cc1cc(F)c(-c2nn[nH]n2)c(N2CCN(Cc3cccnn3)[C@@H](C)C2)c1 [Compound A-174, 3-[[(2S)-4-[3-fluoro-5-isobutyl-2-(2H-tetrazol-5-yl)phenyl]-2-methyl-piperazin-1-yl]methyl]pyridazine]
0.23 | 92 | 2 | CC(C)Cc1cc(F)c(-c2nn[nH]n2)c(N2CC(C)N(Cc3cccnn3)CC2C)c1 (stereo not drawn) [Compound A-183, 3-[[4-[3-fluoro-5-isobutyl-2-(2H-tetrazol-5-yl)phen-yl]-2,5-dimethyl-piperazin-1-yl]-methyl]pyridazine]
0.004 | 98 | – | CC(C)Cc1cc(F)c(-c2nn[nH]n2)c(N2CCN(Cc3ccccn3)[C@@H](C)C2)c1 [Compound A-217, (2S)-4-[3-fluoro-5-isobutyl-2-(2H-tetrazol-5-yl)phenyl]-2-methyl-1-(2-pyridylmethyl)piperazine]
